Target: interaction between ACE-2 receptor and spike S1 protein of SARS-CoV2 (Severe acute respiratory syndrome coronavirus 2, UniProt P0DTC2)

Sequence	interaction between ACE-2 receptor and spike S1 protein in presence of peptide
QTFDKNHEDLYLQAKQLK [Peptide 3]	blocked
DKFNHEAEDLFY [Peptide 4]	blocked

Source: patent US20240150398A1, “PEPTIDES AND CONJUGATES THEREOF AS ACE-2 AND S1 SUBUNIT MIMICS AGAINST SEVERE ACUTE RESPIRATORY SYNDROME CORONAVIRUS-2 (SARS-COV2) INFECTION” (priority 2020, published 2024)
